From patent publication US20160193216A1 (Nimbus Iris, Inc., priority 2012, published 2016)
Like-named read-outs stand apart in the source and are kept apart here.

Experiments:
[1] = tested on: collagen-induced arthritis; assay: In vivo murine collagen-induced arthritis model; conditions: DBA mice, intraperitoneally 30 mg/kg twice a day, vs vehicle
Description: In Vivo Murine Collagen-Induced Arthritis Model Compounds of the present invention were also evaluated in mice in an in vivo efficacy model for inhibiting IRAK4-mediated arthritis. An exemplary protocol for this assay follows. Male DBA mice were immunized with collagen on day 0 and day 21 and randomly enrolled into groups upon onset of disease. […] Eight mice were enrolled per group with the exception of the naïve control group, which contained four mice. Day 1 was designated as the first treatment day, and mice were evaluated daily for clinical scores until day 11. The mice were weighed on alternating days.

Whole Blood = assay: In vitro LPS/R848-induced cytokine production assay in whole blood; type: cell-based, human
Description: (§1) In Vitro LPS/R848/CpG-Induced Cytokine Production Assays in hPBMC or Whole Blood
(§2) Compounds of the present invention were also studied in in vitro LPS/R848/CpG-induced cytokine production assays. Exemplary protocols follow.
(§3) […] Cells were seeded in a 96-well plate with 130 ul/well of the cell suspension according to the plate map. 9 ul of 30 mM compound solution was added into the wells in the assigned rows, then serial solutions with 4× dilutions were made. That is, add 9 uL of 100% DMSO into each of the rest wells and take 3 uL of compound solution from the one-step higher concentration solution and mix well with the DMSO. For the second compound master plate, 196 uL of the growth medium (no serum media) were added into each of the wells and 4 uL of the compound solution from the first compound master plate was added and mixed with the media. Cells were treated for 0.5 h by adding 20 uL of the compound and the control solutions prepared in the second master plate to each well according to the plate map. […] Plates were sealed with sealing films and the plates were centrifuged at 3000 rpm at 4 degrees C. for 5 min. The supernatants were transferred, and 100 ul of working Capture antibody solution was added to each well. The plates were sealed and incubated overnight at RT. IL-6, IFN-α or TNF-α detection antibody labeled with biotin: Added 100 uL of the Detection Antibody solution to each well. Covered the plate and incubated for 2 h at RT. Added 100 uL of Streptavidin-HRP solution to each well. Covered the plate and incubate for 20 min at RT in dark. Added 100 uL of Substrate Solution to each well. Incubated for 20 min at RT in dark. Added 50 uL of Stop Solution to each well. Gently tapped the plate to ensure thorough mixing. Determined the optical density of each well immediately, using a microplate reader set to 450 nm and also read at 540 nm or 570 nm for correction if wavelength correction is not available.

OCI-Ly10 cells = assay: In vivo murine xenograft tumor model of human ABC DLBCL lymphoma; conditions: NOD/SCID mice
Description: In Vivo Murine Tumor Model of Human ABC DLBCL Lymphoma
Compounds of the present invention were also evaluated in a xenograft tumor model of human ABC DLBCL lymphoma first described and disclosed in Staudt et al. (2012). The tumor was established by subcutaneous injection of OCI-Ly10 cells into immunodeficient (NOD/SCID) mice. […] Tumor growth was monitored by measuring tumor size in two orthogonal directions. The tumor volume was calculated by using the formula (1/2)(long dimension)×(short dimension)^2.

THP-1 cells = assay: LPS induced cytokine (TNFα and IL8) production assay in THP-1 cells; type: cell-based; conditions: Homo sapiens, 300 ng/mL LPS
Summary of the method: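 THP-1 cells (100,000/well) pre-incubated 1 hour with compound in 0.3% DMSO, then stimulated with 300 ng/mL LPS. TNFα and IL8 in supernatant measured by HTRF at 5 hours; IL8 and viability also at 16 hours.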

hPBMC = assay: In vitro LPS/R848/CpG/IL-1β-induced cytokine production assay in hPBMC; type: cell-based; conditions: Homo sapiens
Description: as §1, §2, §3

ABC DLBCL Cells = assay: sensitization of ABC DLBCL cells to IRAK inhibitors by BTK knockdown; type: cell-based; conditions: BTK knockdown (FIG. 9)
Excerpt: FIG. 8 depicts the sensitization of ABC DLBCL Cells to IRAK Inhibitors by BTK knockdown.

ABC DLBCL cell lines = assay: Cell viability assay, combination with ibrutinib; type: cell-based
Description: Compounds of the present invention were also evaluated in a cell viability assay.

GCB DLBCL Cells = assay: sensitization of GCB DLBCL cells by BTK knockdown; type: cell-based; conditions: BTK knockdown (FIG. 10)
IRAK4 = biological target: T1, IRAK4 (Homo sapiens, UniProt Q9NWZ3); assay: IRAK-4 activity inhibition assay (Caliper); type: biochemical; conditions: 37 μM ATP, 3.5 nM IRAK4
T1 sequence (Q9NWZ3 1-460): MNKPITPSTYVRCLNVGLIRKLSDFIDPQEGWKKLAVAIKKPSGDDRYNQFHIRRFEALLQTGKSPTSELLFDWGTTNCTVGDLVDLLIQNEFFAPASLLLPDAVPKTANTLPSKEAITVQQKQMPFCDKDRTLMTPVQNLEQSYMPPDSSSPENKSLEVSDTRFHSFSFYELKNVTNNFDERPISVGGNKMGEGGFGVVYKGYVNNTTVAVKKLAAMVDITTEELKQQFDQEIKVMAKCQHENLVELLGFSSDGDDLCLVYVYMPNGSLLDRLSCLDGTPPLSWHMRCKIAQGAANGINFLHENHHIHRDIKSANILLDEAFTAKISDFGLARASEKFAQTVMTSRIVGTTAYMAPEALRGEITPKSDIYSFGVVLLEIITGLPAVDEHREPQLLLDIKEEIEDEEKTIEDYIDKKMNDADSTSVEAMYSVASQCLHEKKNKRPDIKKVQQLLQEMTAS

[2] = Homo sapiens, LPS 0.1 ug/mL, read-out: IL-6 production IC50
[3] = Homo sapiens, LPS 0.1 ug/mL, read-out: TNF-α production IC50
[4] = R848 1 uM, read-out: TNF-α production IC50
[5] = LPS 0.01 ug/mL, read-out: IL-6 production IC50
[6] = LPS 0.01 ug/mL, read-out: TNF-α production IC50

Row | IC50 (IRAK4) [nM] | SMILES | Clinical scores, collagen-induced arthritis [1] | IC50 (Whole Blood; [2]) [nM] | IC50 (Whole Blood; [3]) [nM] | IC50 (Whole Blood; Homo sapiens, R848 1 uM, read-out: IFN-α production IC50) [nM] | IC50 (Whole Blood; [4]) [nM] | ABC lymphoma growth (tumor volume) (OCI-Ly10 cells) | Tolerability in the animals (OCI-Ly10 cells) | IC50 (THP-1 cells; read-out: IL8 production IC50) [nM] | IC50 (THP-1 cells; read-out: TNFα production IC50) [nM] | IC50 (hPBMC; CpG 0.1 uM, read-out: IFN-α production IC50) [nM] | IC50 (hPBMC; CpG 0.5 uM, read-out: TNF-α production IC50) [nM] | IC50 (hPBMC; IL-1β 1 ng/mL, read-out: IL-6 production IC50) [nM] | IC50 (hPBMC; [5]) [nM] | IC50 (hPBMC; [6]) [nM] | IC50 (hPBMC; [4]) [nM] | sensitization of ABC DLBCL Cells to compound by BTK knockdown (ABC DLBCL Cells) | Killing of ABC DLBCL cells in combination with ibrutinib (ABC DLBCL cell lines) | sensitization of GCB DLBCL Cells to compound by BTK Knockdown (GCB DLBCL Cells)
1 |  | NC(=O)[C@@H](O)C[C@H]1CCc2sc3ncnc(O[C@H]4CC[C@H](N5CCOCC5)CC4)c3c21 [Compound I-92, (S)-2-hydroxy-3-((R)-4-(((1r,4R)-4-morpholinocyclohexyl)oxy)-6,7-dihydro-5H-cyclopenta[4,5]thieno[2,3-d]pyrimidin-5-yl)propanamide] | efficacious compared to the vehicle | ≤ 250 | 500 to 1000 | 500 to 1000 | 500 to 1000 | reduces ABC lymphoma growth | well tolerated | ≤ 500 | ≤ 500 | 250 to 500 | ≤ 250 | ≤ 250 | ≤ 250 | ≤ 250 | ≤ 250 | sensitization | Synergistic killing | lack of sensitization
2 | < 5000 | CN[C@H]1CC[C@H](Oc2ncnc3sc4c(c23)[C@@H](CC(N)=O)CC4)CC1 [Compound I-79, 2-[(3R)-12-[[4-(methylamino)cyclohexyl]oxy]-7-thia-9,11-diazatricyclo[6.4.0.0̂[2,6]]dodeca-1(8),2(6),9,11-tetraen-3-yl]acetamide] |  | ≥ 1000 | ≥ 1000 |  |  |  |  | 500 to 1000 | 1000 to 5000 |  |  |  | ≥ 1000 | ≥ 1000 |  |  |  | 
